Source: US5686448A (priority 1995, dated 1997)

Assays:
Vero cells = settings: 25 mg/ml, 48 hours
Protocol: To determine the toxicity level of the drug, all three cell lines--RK-13, Vero cells, and WISH cells--were used. In the toxicity experiments, the effect of the drug on the uninfected cell for a range of periods of time was determined. Accordingly, cultures were incubated with and without the drug. The time of exposure was from one to seven hours. A comparison was then made between the drug tested cultures and the control cultures. After each period of incubation, the cells were washed and fresh media was added to the cells. The cell viability was then determined by dividing these cultures and having them grow into new cell cultures.
At the end of the incubation period, the cultures were washed twice with sterile PBS (Dulbecco). Fresh medium was added to each of the cultures. The cultures were then incubated for an additional 24 hours.
(§1) Healthy confluent monolayer cell cultures were overlaid with 1 ml of the drug and incubated for 48 hours at 37° C. and then stained. Cell cultures with maintenance media were used as controls.

[1] = test system: Flow 1000 cells (foreskin cells); settings: 25 mg/ml, 48 hours
Protocol: as §1

HSV-2 (333 strain) = assay: HMB plaque inhibition in infected Vero cells (Exp. 1M-1P); type: cell-based
Protocol: In this experiment, 25 mg/ml HMB was tested on Vero cells infected with HSV-2. The virus control cultures, without HMB, had 705 plaque.
The number of plaque on the virus control was about 10 to 12 plaque.
In this experiment, 25 mg/ml, 20 mg/ml, and 15 mg/ml of HMB concentrations were tested on Vero cells infected with HSV-2. […] The experimental flasks had as many, or more, plaque as the control, with an average of 154 plaque for the control and 169 plaque for the HMB-treated flasks.

RK-13 cells = settings: 25 mg/ml, 48 hours

Question: Which toxicity (Vero cells) does the source give for `C[N+](C)(C)CCCCCC[N+](C)(C)C` [HMB, hexamethonium bromide] here?
Answer: The toxicity was “no toxicity”.

Question: And the toxicity [1]?
Answer: Its toxicity is “no toxicity”.

Question: What about the cell layer appearance (HSV-2 (333 strain); Exp. 1M, 25 mg/ml) of the same compound?
Answer: The cell layer appearance was “thin cell layer”.

Question: What about the plaque inhibition (HSV-2 (333 strain); Exp. 1N, 20 mg/ml, control about 10 to 12) of the same compound?
Answer: The plaque inhibition was “complete inhibition of plaque”.

Question: What about the effect on plaque (HSV-2 (333 strain); Exp. 1O, 15 mg/ml) of the same compound?
Answer: Its effect on plaque is “did not have any effect”.

Question: What about the average plaque number (HSV-2 (333 strain); Exp. 1O, 15 mg/ml, control 154) of the same compound?
Answer: Its average plaque number is 169 plaque.

Question: And the plaque formation (HSV-2 (333 strain); Exp. 1O, 20 mg/ml)?
Answer: The plaque formation was “no plaque”.

Question: What about the toxicity to monolayer (HSV-2 (333 strain); Exp. 1O, 25 mg/ml) of the same compound?
Answer: The toxicity to monolayer was “toxic to the monolayer”.

Question: And the plaque formation (HSV-2 (333 strain); Exp. 1O, 25 mg/ml, most likely due to toxicity)?
Answer: The plaque formation was “no plaque”.

Question: What about the “inhibition of in vitro replication” value (HSV-2 (333 strain); HMB, Example No. 1 summary) of the same compound?
Answer: The value was “inhibit the in vitro replication of HSV-1 and HSV-2”.

Question: What about the toxicity (RK-13 cells) of the same compound?
Answer: Its toxicity is “slight toxicity”.
